# Source: ChEMBL document CHEMBL5543059, “Discovery of anti-inflammatory natural flavonoids: Diverse scaffolds and promising leads for drug discovery” (Eur J Med Chem, 2023)
# System: RAW264.7
# Assay: Antiinflammatory activity in LPS-induced mouse RAW264.7 cells assessed as reduction in COX2 mRNA expression incubated for 24 hrs by qRT-PCR analysis
# Format: functional, cell-based
# Conditions: RAW264.7, 24 h
row,IC50 [µM],SMILES
1,11.7,CC(C)=CCC/C(C)=C/Cc1c(C2CC(=O)c3c(O)cc(O)cc3O2)ccc(O)c1O (centres undefined)
2,11.7,CC(C)=CCC/C(C)=C/Cc1c(O)cc2c(c1O)C(=O)CC(c1ccc(O)c(O)c1)O2 (centres undefined)
3,11.7,CC(C)=CCC/C(C)=C/Cc1cc(C2CC(=O)c3c(O)cc(O)cc3O2)cc(O)c1O (centres undefined)
4,11.7,CC(C)=CCC/C(C)=C/Cc1cc(C2CC(=O)c3c(O)cc(O)cc3O2)ccc1O (centres undefined)

# System: BV-2
# Assay: Anti-inflammatory activity in mouse BV-2 cells assessed as inhibition of LPS-induced NO production preincubated with compound for 1 hrs followed by LPS stimulation and measured after 24 hrs by Griess reagent based assay
# Format: functional, cell-based
# Conditions: not given
row,IC50 [µM],SMILES
1,4.2,COc1cc(O)c2c(=O)c(OC)c(-c3ccc(O)c(O)c3)oc2c1
2,11.1,COc1ccc(-c2oc3cc(O)cc(O)c3c(=O)c2OC)cc1O

# System: RAW264.7
# Assay: Antiinflammatory activity in LPS-activated mouse RAW264.7 cells assessed as inhibition of ROS production at 10 uM relative to control
# Format: functional
# Parameters: scale not given: the % may be the effect or the level left
# Conditions: not given
row,SMILES,Activity [%]
1,COc1c(/C=C/C(=O)c2ccc(O)cc2)ccc(O)c1O,80
2,C=CC(C)(C)c1cc(/C=C/C(=O)c2ccc(O)cc2)c(OC)c(O)c1O,80
3,COc1cc(O)ccc1/C=C/C(=O)c1ccc(O)cc1 [ECHINATIN],80

# System: BV-2
# Assay: Antiinflammatory activity in mouse BV-2 cells assessed as reduction in LPS-induced NO production pre-treated with compound for 1 hr followed by LPS-stimulation and measured for 23 hrs by Griess reagent based analysis
# Format: functional, cell-based
# Conditions: not given
row,IC50 [µM],SMILES
1,11.3,COc1c(-c2ccc3c(c2)OCO3)oc2c(ccc3oc(C(C)(C)O)cc32)c1=O
2,6.88,COc1c(-c2ccc(O)c(O)c2)oc2c(CC=C(C)C)c3c(c(O)c2c1=O)C=CC(C)(C)O3
3,11.3,COc1cc2oc(-c3ccc4c(c3)OCO4)c(OC)c(=O)c2cc1OC
4,11.3,COc1c(-c2ccccc2)oc2c3c(ccc2c1=O)OC(C)(C)[C@H](O)C3
5,11.3,CC(=O)O[C@@H]1c2c(ccc3c(=O)c(O)c(-c4ccccc4)oc23)OC(C)(C)[C@@H]1OC(C)=O
6,2.88,CC(C)=CCc1cc(-c2oc3cc(O)cc(O)c3c(=O)c2O)ccc1O [ISOLICOFLAVONOL]

# System: RAW264.7
# Assay: Anti-inflammatory activity in mouse RAW264.7 cells assessed as inhibition of LPS-induced nitric oxide production preincubated for 2 hrs followed by LPS stimulation and measured after 24 hrs by Griess assay
# Format: functional, cell-based
# Conditions: not given
row,IC50 [µM],SMILES
1,20,CC1(C)C=Cc2cc(-c3coc4cc(O)cc(O)c4c3=O)cc(O)c2O1
2,0.25,CC(C)=CCc1c(O)ccc(-c2coc3c(CC=C(C)C)c(O)cc(O)c3c2=O)c1O
3,0.8,CC1(C)C=Cc2c(O)ccc(-c3coc4cc(O)cc(O)c4c3=O)c2O1

# System: Neutrophil
# Assay: Inhibition of fMLF/CB-induced human Neutrophil activation assessed as reduction in elastase release
# Format: functional, cell-based
# Conditions: not given
row,SMILES,IC50 [µM]
1,CC1(C)CCC[C@@]2(C)Oc3c(ccc4oc(-c5ccc(O)c(O)c5)cc(=O)c34)C[C@@]12C,1.9
2,Cc1cc2oc(-c3ccc(O)c(O)c3)cc(=O)c2c2c1C[C@@]1(C)C(C)(C)CCC[C@@]1(C)O2,3.8
3,c1ccc2c(c1)[I+]c1ccccc1-2 [DIPHENYLENEIODONIUM],1
4,O=C1C[C@@H](c2ccc(O)cc2)Oc2cc(O)cc(O)c21 [NARINGENIN],5.3

# System: BV-2
# Assay: Anti-inflammatory activity in mouse BV-2 cells assessed as reduction in LPS-induced NO production pretreated for 1 hr followed by LPS-stimulation and measured after 18 hrs by 2,3-diaminonaphthalene reagent based fluorescence analysis
# Format: functional, cell-based
# Conditions: not given
row,IC50 [µM],SMILES
1,40.1,Oc1ccc2c(c1)OC[C@H](c1cc3c(cc1O)OCO3)[C@H]2O
2,46.3,COc1c(O)ccc2c1OC[C@H](c1cc3c(cc1O)OCO3)[C@H]2O
3,28.3,COc1ccc(-c2cc3cc(O)c(O)cc3oc2=O)c(OC)c1OC

# System: J774.A1
# Assay: Anti-inflammatory activity in mouse J774.A1 macrophage cells assessed as reduction in LPS-induced TNF-alpha production
# Format: functional, cell-based
# Conditions: not given
row,SMILES,IC50 [µM]
1,COc1c2c(cc3oc(-c4ccccc4)cc(=O)c13)OCO2,0.22
2,COc1cc2oc(-c3ccccc3)cc(=O)c2c(O)c1O,0.22
3,COc1cc2oc(-c3ccccc3)cc(=O)c2c(O)c1OC [MOSLOFLAVONE],0.22

# System: RAW264.7
# Assay: Antiinflammatory activity against mouse RAW264.7 cells assessed as reduction of LPS-induced NO production
# Format: functional, cell-based
# Conditions: not given
row,IC50 [µM],SMILES
1,28.4,CC(C)=CCc1cc([C@@H]2CCc3ccc(O)cc3O2)ccc1O
2,29.3,CC(C)=CCc1c([C@@H]2CCc3ccc(O)cc3O2)cc2c(c1O)OC(C)(C)C=C2 [KAZINOL B]

# System: Neutrophil
# Assay: Inhibition of fMLF/CB-induced human Neutrophil activation assessed as reduction in superoxide anion
# Format: functional, cell-based
# Conditions: not given
row,SMILES,IC50 [µM]
1,CC1(C)CCC[C@@]2(C)Oc3c(ccc4oc(-c5ccc(O)c(O)c5)cc(=O)c34)C[C@@]12C,2.2
2,Cc1cc2oc(-c3ccc(O)c(O)c3)cc(=O)c2c2c1C[C@@]1(C)C(C)(C)CCC[C@@]1(C)O2,5.8
3,O=C1C[C@@H](c2ccc(O)cc2)Oc2cc(O)cc(O)c21 [NARINGENIN],3.3
4,O=S(=O)(F)Cc1ccccc1 [PHENYLMETHYLSULFONYLFLUORIDE],95

# System: RAW264.7
# Assay: Anti-neuroinflammatory activity in mouse RAW264.7 cells assessed as inhibition of LPS-induced NO production pre-incubated for 1 hr followed by LPS stimulation and measured after 24 hrs by Griess reagent based assay
# Format: functional, cell-based
# Conditions: not given
row,IC50 [µM],SMILES
1,0.89,COc1c2c(cc3oc(=O)c(-c4ccc(O)cc4)c(O)c13)OC(C)(C)C=C2
2,0.89,COc1c(-c2ccc3c(c2)OCO3)c(=O)oc2cc3oc(C(C)(C)O)cc3c(OC)c12
3,0.89,C=C(C)c1oc2c(OC)c3oc(=O)c(-c4ccc(OC)cc4)c(O)c3c(OC)c2c1OC
4,0.89,C=C(C)c1cc2c(OC)c3c(O)c(-c4ccc(OC)cc4)c(=O)oc3c(OC)c2o1
5,0.89,C=C(C)c1cc2c(OC)c3c(O)c(-c4ccc5c(c4)OCO5)c(=O)oc3c(OC)c2o1

# System: Mus musculus
# Assay: Antiinflammatory activity against TPA-induced CD-1 mouse ear edema model assessed as reduction in ear edema at 0.25 mg/kg relative to control
# Format: functional
# Parameters: scale not given: the % may be the effect or the level left
# Conditions: not given
row,SMILES,Activity [%]
1,O=C1C[C@@H](c2ccc(O)cc2)Oc2cc(O)cc(O)c21 [NARINGENIN],42

# System: Mus musculus
# Assay: Antiinflammatory activity against TPA-induced CD-1 mouse ear edema model assessed as reduction in ear edema at 1 uM relative to control
# Format: functional
# Parameters: scale not given: the % may be the effect or the level left
# Conditions: not given
row,SMILES,Activity [%]
1,CC(=O)O[C@@H]1c2c(ccc3c(=O)c(O)c(-c4ccccc4)oc23)OC(C)(C)[C@@H]1OC(C)=O,12.28

# System: J774.A1
# Assay: Antiinflammatory activity in LPS-induced mouse J774.A1 macrophage cells assessed as reduction in LPS-induced IL-1 beta level
# Format: functional, cell-based
# Conditions: not given
row,SMILES,IC50 [µM]
1,COc1c2c(cc3oc(-c4ccccc4)cc(=O)c13)OCO2,6.4
2,COc1cc2oc(-c3ccccc3)cc(=O)c2c(O)c1O,6.4
3,COc1cc2oc(-c3ccccc3)cc(=O)c2c(O)c1OC [MOSLOFLAVONE],6.4
